The text below walks through data of ChEMBL document CHEMBL1157539, “Thousands of chemical starting points for antimalarial lead identification” (Nature, 2010).

SMILES strings stand for the structures.

The subject of the assay is Plasmodium falciparum. The assay is described as follows: GSK_TCMDC: Inhibition of Plasmodium falciparum 3D7 in whole erythrocytes, using parasite LDH activity as an index of growth. As to conditions: Plasmodium falciparum, 3D7. The assay is classed as functional, organism-based.
Compound `O=C(Cn1c(CCc2cccc(F)c2F)nc(=O)c2ccccc21)N(CCCN1CCCC1)Cc1ccc(-c2ccc(C(F)(F)F)cc2)cc1` came in with an XC50 of 941 nM.
The compound `N=C(N)Nc1ccc(Cc2ccc(NC(=N)N)cc2)cc1` showed an XC50 of 255 nM.
To `COc1ccc(Nc2nccc(NCCNC(=O)Nc3ccccc3F)n2)cc1` belongs 1320 nM; to `CC1=C(C(=O)Nc2cc3cn[nH]c3cc2F)C(c2cccc(O)c2F)CC(=O)N1` (stereo not given), 629 nM; to `C#CCOc1ccc(N2C(N)=NC(N)=NC2(C)C)cc1`, 65.8 nM.
With `C=CCN1C(=O)C(=Cc2cc(Br)ccc2O)SC1=Nc1ccccc1` the figure was 900 nM; with `CCCC(C)Nc1nc(C)cc(NCCC(=O)Nc2ccccc2)n1` (stereo not given), 959 nM.
To `N#Cc1ccc2c(c1)CCN(CCC1CCC(NC(=O)/C=C/c3nc4ccccc4s3)CC1)CC2` (stereo not given) belongs 829 nM; to `COc1cc(NC(=O)N2CCOC(CCN3CCC4(CCc5ccccc54)CC3)(c3ccc(Cl)c(Cl)c3)C2)cc(OC)c1` (stereo not given), 819 nM.
In turn, `O=C(Cc1c[nH]cn1)Nc1ccc(-c2cccc(-c3nc4cc(F)ccc4[nH]3)c2)cc1` gave an XC50 of 797 nM.
With `COc1ccc(NC(=O)c2cn(-c3ccc(C(C)(C)C)cc3)nc2C)cc1N1CCN(C)CC1` the figure was 949 nM; with `CCOc1cc(C)c(C2CCN(CCCCNC(=O)c3ccc(NC(=O)c4ccc(Cl)cc4)cc3)CC2)cc1C`, 739 nM.
To `O=C(NC1CCCCC1)C1CCCN(C(=O)c2ccc(O)c(-c3ccc(Cl)c(Cl)c3)c2)C1` (stereo not given) belongs 903 nM.
With `Clc1ccc2c(NCCc3ccccn3)ccnc2c1` the figure was 832 nM; with `CC(C)c1cc2c(ccc3nc(N)nc(N)c32)o1`, 85.7 nM; with `COc1cc(-c2cc(-c3ccc(S(C)(=O)=O)cc3)cnc2N)ccc1O`, 101 nM.
Compound `Cc1c(C)n(C2CCCCC2)c2ncnc(OC3CCN(CC(=O)N4CCCC4)CC3)c12` yielded an XC50 of 1450 nM.
With `Cc1cccc2nc(-c3cccc(-c4cccc(CNCCN5CCNCC5)c4)c3)[nH]c12` the figure was 970 nM; with `C#C[C@H]1O[C@@H](n2cnc3c(Nc4cc(Br)cc(C(F)(F)F)c4)ncnc32)[C@H](O)[C@@H]1O`, 1030 nM; with `C#CC[C@@H](NC(N)=O)C(=O)O`, 189 nM.
To `CC(C)c1cn2c3c(cc(C(=O)N[C@@H](Cc4ccccc4)[C@H](O)CNC4CCCCC4)cc13)N(C)S(=O)(=O)CC2` belongs 30 nM; to `CC(C)COc1ccc(Cl)cc1Cc1nc(-c2nc3ccc(N4CCN(C)CC4)nc3[nH]2)cs1`, 751 nM; to `Cc1cccc2nc(-c3ccc(-c4cccc(CN5CCCC5CN)c4)cc3)[nH]c12` (stereo not given), 914 nM.
To `Cc1cc(Nc2ccc(O)cc2)nc2cc(O)ccc12` belongs 756 nM.
Compound `Cc1ccc(C)c(Sc2ccc(NC(=O)CN3CCN(C(=O)c4ccco4)CC3)cc2)c1` yielded an XC50 of 716 nM.
To `CC(=O)Nc1nc(C(=O)Nc2ccc(-c3cccc(-c4nc5cccc(C)c5[nH]4)c3)cc2)cs1` belongs 232 nM.
For the compound `CCN(CC)CCCCNc1cc(-c2[nH]c(-c3c(Cl)cccc3Cl)nc2-c2ccc3cc(OC)ccc3c2)ccn1`, the XC50 was 958 nM.
To `O=C(Cc1cccc(O)c1)Nc1ccc(-c2cccc(-c3nc4cc(C(F)(F)F)ccc4[nH]3)c2)cc1` belongs 983 nM.
To `Cc1cc2ccccc2n1CC(=O)N1CC(C(=O)N2CCCCC2)Oc2ccccc21` (stereo not given) belongs 899 nM.
With `CC(=O)Nc1cc(C(=O)Nc2ccc(C3=NCCN3)cc2)ccc1C(=O)Nc1ccc(C2=NCCN2)cc1` the figure was 133 nM.
The compound `COc1ccc(C(=O)CCC(=O)N(CCSC(C)(C)C)Cc2ccc(-c3ccc(CNCCc4ccc(S(C)(=O)=O)cc4)cn3)cc2)cc1F` had an XC50 of 627 nM.
With `O=C(/C=C/c1ccc(Cl)c(Cl)c1)N1CCN(C(=O)Nc2ccc(F)c(Cl)c2)CC1` the figure was 724 nM; with `Cc1nc2ccc3nc(NC(=O)c4ccno4)sc3c2s1`, 656 nM; with `O=C(NC1CCN(Cc2ccccc2)CC1)c1ccc(-c2nc3cc4ccccc4cc3[nH]2)s1`, 601 nM.
With `COCCNCc1cccc(-c2cc3nccc(Nc4ccc(Oc5ccccc5)cc4)c3cc2Cl)c1` the figure was 1380 nM.
The compound `Cc1ccc2cc(NCCCCCCCCON3C(N)=NC(N)=NC34CCCCC4)ccc2n1` showed an XC50 of 163 nM.
To `CNCCNCc1ccc(-c2ccc(-c3nc4cccc(C)c4[nH]3)cc2)cc1` belongs 670 nM; to `CS(=O)(=O)CCNCc1cccc(-c2ccc3c(Nc4cc(O)c(Cl)cc4F)ccnc3c2)c1`, 254 nM.
With `COc1ccc2nccc([C@@H](O)CN3CCC(NC(=O)c4cccc(C(=O)c5ccccc5)c4)CC3)c2c1` the figure was 685 nM; with `O=C(/C=C/c1ccc(Cl)c(Cl)c1)N1CCC(CN2CCC(c3cn(CC(=O)N4CCCCC4)c4ccccc34)CC2)CC1`, 750 nM; with `COc1cc(Br)c(NC(=O)Nc2ccc(C(F)(F)F)c(O[C@@H]3CCN(C)C3)c2)cc1OC`, 626 nM.
With `NC(=O)c1cccc(Nc2nccc(Nc3ccc(Oc4c(Cl)cccc4Cl)c(Cl)c3)n2)c1`, the XC50 stood at 871 nM.
`CC(C)NCc1ccc(-c2ccc(-c3nc4cc(F)ccc4[nH]3)cc2)cc1` registered an XC50 of 213 nM.
With `CCc1cccc(-n2c(=O)c3cccnc3n2CC(=O)NC2CCCC2)c1` the figure was 932 nM; with `COc1ccc(NC(=O)[C@H](Cc2ccccc2)Nc2cc(C)nc(NCCc3cccnc3)n2)cc1`, 760 nM; with `O=c1cc(NCCCNCc2ccc(Cl)c(Cl)c2)[nH]c2cc(F)cc(F)c12`, 675 nM.
In turn, `Cn1cnc(CCNC(=O)c2ccc(-c3cccc(-c4nc5ccccc5[nH]4)c3)cc2)c1` registered an XC50 of 1100 nM.
To `O=C(Cc1cccc2ccccc12)NC1CCN(c2ccnc3cc(Cl)ccc23)C1` (stereo not given) belongs 248 nM.
With `O=C(Nc1ccc(-c2csc3nccn23)cc1)c1ccc(Cl)cc1` the figure was 584 nM; with `CCOC(=O)c1ccc(N2CCN(CCCNC(=O)/C(=C/C=C/c3cc4cc(Cl)c(Cl)cc4[nH]3)OC)CC2)cc1`, 845 nM.
With `O=C(C=Cc1ccc(Cl)c(Cl)c1)NCCCCCN1CCCC(CCCNC(=O)c2cccs2)C1` (stereo not given), the XC50 stood at 1300 nM.
To `CCC1(C)N=C(N)N=C(N)N1c1ccccc1` (stereo not given) belongs 792 nM; to `CC(C)CCNCc1ccc(OCc2ccccc2COc2ccc(CNCCC(C)C)cc2I)c(I)c1`, 425 nM.
To `CC(C)COc1ccc(Cl)cc1Cc1nc(-c2nc3ccc(CN4CCCC4)cc3[nH]2)co1` belongs 727 nM; to `Cc1ccc(-c2cnc(N)c3cc(-c4ccnc(N)n4)ccc23)cc1`, 808 nM; to `CC(CN1CCN(C)CC1)C(=O)Nc1cccc(-c2cccc(-c3nc4ccccc4[nH]3)c2)c1` (stereo not given), 1010 nM.
With `O=C(Nc1cccc(F)c1)N[C@H]1CCN(CCCCCNC(=O)C2CC2c2ccc(Cl)c(Cl)c2)C1` (stereo not given in full) the figure was 991 nM.
Regarding `COc1ccc(NC(=O)c2ccc(-c3cc(NC(=O)c4ccnc(N5CCCC5)c4)ccc3C)s2)cc1N1CCN(C)CC1`, the XC50 stood at 245 nM.
With `Cc1cc(CNCC2CCC(CNCCCc3ccccc3)CC2)ccc1O` (stereo not given) the figure was 871 nM; with `CCC(CC)n1cc2c(ccc3nc(N)nc(N)c32)n1`, 81.4 nM.
To `Cn1cncc1CCN(Cc1ccc(-c2ccc(C(F)(F)F)cc2)cc1)C(=O)Cn1c(SCc2cccc(F)c2F)cc(=O)c2ccccc21` belongs 990 nM; to `CCCCNC(=O)[C@H](CC1CCCCC1)NC(=O)c1ccc(O)c(-c2ccc(Cl)c(Cl)c2)c1`, 164 nM.
With `CCOC(=O)c1cn(CC)c2cc(N(C)CCc3ccc(OC)c(OC)c3)c(F)cc2c1=O` the figure was 425 nM; with `CC1CCCN(c2ccc(NC(=O)c3cccs3)cc2[N+](=O)[O-])C1` (stereo not given), 669 nM; with `Cc1ccc(C(CC(=O)Nc2nccs2)c2ccc(OC(C)C)cc2)cc1` (stereo not given), 479 nM.
Regarding `CC(CCCCCC(=O)Nc1ccc(CC(C)NCCc2cccc(Cl)c2)cc1)NCCc1cccc(Cl)c1` (stereo not given), the XC50 came out at 948 nM.
To `CCOc1ccccc1C1CCN(CCCCNC(=O)c2ccc(NC(=O)c3ccc(Cl)cc3)cc2)CC1` belongs 846 nM.
To `CCCCCCCCCn1c(NCc2cc(Cl)ccc2O)nc2ccccc21` belongs 825 nM; to `CCc1c(C(=O)NC2CCC(N3CCC(c4ccccc4C)CC3)CC2)[nH]c2ccc(Br)cc12` (stereo not given), 928 nM; to `COc1ccccc1-c1csc(C(=O)NC2CCCCN(Cc3ccc(C(C)(C)C)cc3)C2)c1` (stereo not given), 1530 nM.
To `CC(C)CCNC(=O)[C@@H]1[C@H]2C(=O)N(C3CCCCC3)C(=O)[C@H]2[C@H]2C=C[C@@H]3C(c4ccc(C(C)(C)C)cc4)=NO[C@@H]3N21` belongs 788 nM.
In turn, `O=C(/C=C/c1ccc(Cl)cc1)NCCCCCN1CCCN(C(=O)Nc2ccc(F)c(Cl)c2)CC1` came in with an XC50 of 781 nM.
Compound `O=C(Nc1ccc(S(=O)(=O)N2CCCCC2)cc1)c1cc(-c2cc(Cl)ccc2O)n[nH]1` came in with an XC50 of 811 nM.
To `Cc1ccc(NC(=O)c2cn(-c3ccccc3)nc2-c2ccc(F)cc2)cc1[N+](=O)[O-]` belongs 1000 nM; to `COc1cc(NC(=O)c2c(-c3c(Cl)cccc3Cl)noc2C)c(OC)cc1Cl`, 916 nM.
With `Cc1onc(-c2ccccc2)c1C(=O)Nc1nc(-c2ccccn2)nc2ccsc12` the figure was 685 nM.
To `CC(=O)Nc1ccc(OCCN(CC(F)(F)F)c2ccc(C#N)cc2C(F)(F)F)cc1` belongs 767 nM; to `Cc1cccc2nc(-c3cccc(-c4cccc(NC(=O)c5cn(C)c(=O)n5C)c4)c3)[nH]c12`, 505 nM; to `Cc1cc(O)c(C(C)C)cc1C1(c2cc(C(C)C)c(O)cc2C)OC(=O)c2ccccc21`, 871 nM.
On to `COc1cc(Cc2cnc(N)nc2N)cc(OCCCCCC(=O)O)c1OC`, for which the XC50 was 231 nM.
Take `COc1cccc(C(=O)C2CC2CN2CC=C(c3c[nH]c4cccc(Br)c34)CC2)c1` (stereo not given): the XC50 was determined as 752 nM.
With `CN1CCC(NCc2cccc(-c3ccc(S(=O)(=O)NCCN4CCCC4)c(F)c3)c2)CC1` the figure was 1010 nM; with `CC(=O)c1cccc2cc(C(=O)NC3CCC(CCN4CCc5ccc(C#N)cc5C4)CC3)[nH]c12` (stereo not given), 787 nM.
With `Cc1ccc(C2CCN(CCCCNC(=O)c3ccc(NC(=O)c4ccc(Cl)cc4)cc3)CC2)c(OCC2CC2)c1` the figure was 887 nM; with `Cc1ccc(/C=C2/SC(=Nc3ccccc3)NC2=O)c(C)c1`, 557 nM.
